From US8217029B2, “Oxazolidinone antibiotics” (Actelion Pharmaceuticals Ltd, priority 2007, dated 2012)
Values after ≈ are worked out from the molar mass of the structure shown.

Test system: S aureus A798
Test: Minimal inhibitory concentration (MIC), microdilution method in cation-adjusted Mueller-Hinton Broth following NCCLS guidelines
Type: cell-based
Conditions: pH of test medium 7.2-7.3
How it was run: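 Broth microdilution per NCCLS M7-A4 in cation-adjusted Mueller-Hinton broth at pH 7.2-7.3; MIC reported in mg/l.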

MIC	Compound
≤ 0.031 mg/L	COc1ccc2ncnc(N3CCN(CC4CN(c5ccc6c(c5)NC(=O)CS6)C(=O)O4)CC3)c2c1 (racemic) [Example 7, (RS)-6-{5-[4-(6-Methoxy-quinazolin-4-yl)-piperazin-1-ylmethyl]-2-oxo-oxazolidin-3-yl}-4H-benzo[1,4]thiazin-3-one]
≤ 0.031 mg/L	COc1ccc2nccc(N3CC[C@@H](CNC[C@@H]4CN(c5ccc6c(c5)NC(=O)CS6)C(=O)O4)C3)c2c1 [Example 173, 6-[(R)-5-({[(S)-1-(6-Methoxy-quinolin-4-yl)-pyrrolidin-3-ylmethyl]-amino}-methyl)-2-oxo-oxazolidin-3-yl]-4H-benzo[1,4]thiazin-3-one]
≤ 0.031 mg/L	COc1ccc2ncnc(N3CC(NC[C@@H]4CN(c5ccc6c(c5)NC(=O)CO6)C(=O)O4)C3)c2c1 [Example 54, 6-((R)-5-{[1-(6-Methoxy-quinazolin-4-yl)-azetidin-3-ylamino]-methyl}-2-oxo-oxazolidin-3-yl)-4H-benzo[1,4]oxazin-3-one]
≤ 0.031 mg/L	COc1ccc2nccc(N3CC(CNC[C@H]4CN(c5ccc6c(c5)NC(=O)CS6)C(=O)O4)C3)c2n1 [Example 59, 6-[(S)-5-({[1-(6-Methoxy-[1,5]naphthyridin-4-yl)-azetidin-3-ylmethyl]-amino}-methyl)-2-oxo-oxazolidin-3-yl]-4H-benzo[1,4]thiazin-3-one]
8 mg/L (≈ 16.7 µM)	COc1ccc2nccc(N3CCN(CC4CN(c5cc6c(nn5)OCCO6)C(=O)O4)CC3)c2n1 (racemic) [Example 110, (RS)-3-(6,7-Dihydro-[1,4]dioxino[2,3-c]pyridazin-3-yl)-5-[4-(6-methoxy-[1,5]naphthyridin-4-yl)-piperazin-1-ylmethyl]-oxazolidin-2-one]
≤ 0.031 mg/L	COc1ccc2ncc(F)c(N3CCCN(C[C@@H]4CN(c5ccc6c(c5)NC(=O)CO6)C(=O)O4)CC3)c2n1 [Example 103, 6-{(R)-5-[4-(3-Fluoro-6-methoxy-[1,5]naphthyridin-4-yl)-[1,4]diazepan-1-ylmethyl]-2-oxo-oxazolidin-3-yl}-4H-benzo[1,4]oxazin-3-one]
≤ 0.031 mg/L	COc1ccc2nccc(N3CCN(C[C@@H]4CN(c5ccc(F)c(Cl)c5)C(=O)O4)CC3)c2n1 [Example 17, (R)-3-(3-Chloro-4-fluoro-phenyl)-5-[4-(6-methoxy-[1,5]naphthyridin-4-yl)-piperazin-1-ylmethyl]-oxazolidin-2-one]
≤ 0.031 mg/L	COc1ccc2nccc(N3CC[C@H](NC[C@@H]4CN(c5ccc6c(c5)NC(=O)CS6)C(=O)O4)C3)c2c1 [Example 172, 6-((R)-5-{[(S)-1-(6-Methoxy-quinolin-4-yl)-pyrrolidin-3-ylamino]-methyl}-2-oxo-oxazolidin-3-yl)-4H-benzo[1,4]thiazin-3-one]
0.063 mg/L (≈ 0.14 µM)	COc1ccc2nccc(N3CC(CNC[C@@H]4CN(c5ccc(C)c(F)c5)C(=O)O4)C3)c2n1 [Example 154, (R)-3-(3-Fluoro-4-methyl-phenyl)-5-({[1-(6-methoxy-[1,5]naphthyridin-4-yl)-azetidin-3-ylmethyl]-amino}-methyl)-oxazolidin-2-one]
≤ 0.031 mg/L	N#Cc1ccc2nccc(N3CCC(NC[C@@H]4CN(c5ccc6c(c5)NC(=O)CS6)C(=O)O4)CC3)c2c1 [Example 180, 4-(4-{[(R)-2-oxo-3-(3-oxo-3,4-dihydro-2H-benzo[1,4]thiazin-6-yl)-oxazolidin-5-ylmethyl]-amino}-piperidin-1-yl)-quinoline-6-carbonitrile]
≤ 0.031 mg/L	COc1ccc(N2C[C@@H](CNC3CN(c4ccnc5ccc(OC)nc45)C3)OC2=O)cc1 [Example 174, (R)-5-{[1-(6-Methoxy-[1,5]naphthyridin-4-yl)-azetidin-3-ylamino]-methyl}-3-(4-methoxy-phenyl)-oxazolidin-2-one]
4 mg/L	COc1ccc2nccc(N3CCCC(NC[C@@H]4CN(c5ccc6c(c5)OCCO6)C(=O)O4)C3)c2n1 (mixture of isomers) [Example 102, (R)-3-(2,3-Dihydro-benzo[1,4]dioxin-6-yl)-5-{[(RS)-1-(6-methoxy-[1,5]naphthyridin-4-yl)-piperidin-3-ylamino]-methyl}-oxazolidin-2-one]
≤ 0.031 mg/L	COc1ccc2nccc(N3C[C@@H](NC[C@@H]4CN(c5ccc6c(c5)NC(=O)CS6)C(=O)O4)[C@H](OC)C3)c2n1 (relative stereo) [Example 75, 6-((R)-5-{[(3R*,4R*)-4-Methoxy-1-(6-methoxy-[1,5]naphthyridin-4-yl)-pyrrolidin-3-ylamino]-methyl}-2-oxo-oxazolidin-3-yl)-4H-benzo[1,4]thiazin-3-one]
0.25 mg/L	COc1ccc2nccc(N3C[C@@H](CNC[C@@H]4CN(c5ccc6c(c5)NC(=O)CS6)C(=O)O4)[C@@H](O)C3)c2n1 (mixture of isomers) [Example 83, 6-[(R)-5-({[(3RS)-(4RS)-4-Hydroxy-1-(6-methoxy-[1,5]naphthyridin-4-yl)-pyrrolidin-3-ylmethyl]-amino}-methyl)-2-oxo-oxazolidin-3-yl]-4H-benzo[1,4]thiazin-3-one]
0.125 mg/L (≈ 0.257 µM)	COc1ccc2nccc(N3CCN(CC4CN(c5ccc6ccc(=O)[nH]c6c5)C(=O)O4)CC3)c2n1 (racemic) [Example 111, (RS)-7-{5-[4-(6-Methoxy-[1,5]naphthyridin-4-yl)-piperazin-1-ylmethyl]-2-oxo-oxazolidin-3-yl}-1H-quinolin-2-one]
≤ 0.031 mg/L	COc1ccc2nccc(N3CC[C@H](NC[C@@H]4CN(c5ccc6c(c5)NC(=O)CO6)C(=O)O4)C3)c2n1 [Example 69, 6-((R)-5-{[(S)-1-(6-Methoxy-[1,5]naphthyridin-4-yl)-pyrrolidin-3-ylamino]-methyl}-2-oxo-oxazolidin-3-yl)-4H-benzo[1,4]oxazin-3-one]
≤ 0.031 mg/L	COc1ccc2nccc(N3CC[C@@H](NC[C@@H]4CN(c5ccc6c(c5)NC(=O)CO6)C(=O)O4)C3)c2n1 [Example 72, 6-((R)-5-{[(R)-1-(6-Methoxy-[1,5]naphthyridin-4-yl)-pyrrolidin-3-ylamino]-methyl}-2-oxo-oxazolidin-3-yl)-4H-benzo[1,4]oxazin-3-one]
4 mg/L (≈ 8.34 µM)	COc1ccc2nccc(N3CC(N(C)C[C@@H]4CN(c5cc6c(nn5)OCCO6)C(=O)O4)C3)c2n1 [Example 153, (R)-3-(6,7-Dihydro-[1,4]dioxino[2,3-c]pyridazin-3-yl)-5-({[1-(6-methoxy-[1,5]naphthyridin-4-yl)-azetidin-3-yl]-methyl-amino}-methyl)-oxazolidin-2-one]
≤ 0.031 mg/L	COc1ccc2nccc(N3CC(N(CCO)C[C@@H]4CN(c5ccc6c(c5)NC(=O)CS6)C(=O)O4)C3)c2n1 [Example 128, 6-[(R)-5-({(2-Hydroxy-ethyl)-[1-(6-methoxy-[1,5]naphthyridin-4-yl)-azetidin-3-yl]-amino}-methyl)-2-oxo-oxazolidin-3-yl]-4H-benzo[1,4]thiazin-3-one]
0.063 mg/L (≈ 0.132 µM)	COc1ccc2nccc(N3CCN(C[C@H]4CN(c5ccc6c(c5)OCCO6)C(=O)O4)CC3)c2n1 [Example 37, (S)-3-(2,3-Dihydro-benzo[1,4]dioxin-6-yl)-5-[4-(6-methoxy-[1,5]naphthyridin-4-yl)-piperazin-1-ylmethyl]-oxazolidin-2-one]
4 mg/L	COc1ccc2nccc(N3CC[C@@H]4CN(C[C@@H]5CN(c6ccc7c(c6)OCCO7)C(=O)O5)C[C@@H]43)c2n1 (mixture of isomers) [Example 90, (R)-3-(2,3-Dihydro-benzo[1,4]dioxin-6-yl)-5-{[(3aR*,6aR*)-1-(6-methoxy-[1,5]naphthyridin-4-yl)-hexahydro-pyrrolo[3,4-b]pyrrol-5-yl]-methyl}-oxazolidin-2-one]
≤ 0.031 mg/L	COc1ccc2nccc(N3C[C@@H](O)[C@H](NC[C@@H]4CN(c5ccc6c(c5)NC(=O)CS6)C(=O)O4)C3)c2n1 (relative stereo) [Example 76, 6-((R)-5-{[(3R*,4R*)-4-Hydroxy-1-(6-methoxy-[1,5]naphthyridin-4-yl)-pyrrolidin-3-ylamino]-methyl}-2-oxo-oxazolidin-3-yl)-4H-benzo[1,4]thiazin-3-one]
0.25 mg/L (≈ 0.524 µM)	COc1ccc2nccc(N3CC(CNC[C@H]4CN(c5ccc6c(c5)OCCO6)C(=O)O4)C3)c2n1 [Example 1, (S)-3-(2,3-Dihydro-benzo[1,4]dioxin-6-yl)-5-({[1-(6-methoxy-[1,5]naphthyridin-4-yl)-azetidin-3-ylmethyl]-amino}-methyl)-oxazolidin-2-one]
0.5 mg/L (≈ 0.908 µM)	COc1ccc2nccc(N3C[C@@H](NC[C@@H]4CN(c5ccc6c(c5)NC(=O)CS6)C(=O)O4)[C@H](C(=O)O)C3)c2n1 (relative stereo) [Example 74, (3R*,4S*)-1-(6-Methoxy-[1,5]naphthyridin-4-yl)-4-{[(R)-2-oxo-3-(3-oxo-3,4-dihydro-2H-benzo[1,4]thiazin-6-yl)-oxazolidin-5-ylmethyl]-amino}-pyrrolidine-3-carboxylic acid]
≤ 0.031 mg/L	COc1cnc2cccc(N3CC(CNC[C@@H]4CN(c5ccc6c(c5)NC(=O)CS6)C(=O)O4)C3)c2c1 [Example 163, 6-[(R)-5-({[1-(3-Methoxy-quinolin-5-yl)-azetidin-3-ylmethyl]-amino}-methyl)-2-oxo-oxazolidin-3-yl]-4H-benzo[1,4]thiazin-3-one]
0.5 mg/L (≈ 1.05 µM)	CCOc1ccc(N2C[C@@H](CNC3CCN(c4ccnc5ccc(OC)nc45)CC3)OC2=O)cc1 [Example 184, (R)-3-(4-Ethoxy-phenyl)-5-{[1-(6-methoxy-[1,5]naphthyridin-4-yl)-piperidin-4-ylamino]-methyl}-oxazolidin-2-one]
≤ 0.031 mg/L	COc1ccc2nccc(N3CC[C@@H](NCCC4CN(c5ccc6c(c5)NC(=O)CS6)C(=O)O4)C3)c2n1 (mixture of isomers) [Example 87, 6-((RS)-5-{2-[(R)-1-(6-Methoxy-[1,5]naphthyridin-4-yl)-pyrrolidin-3-ylamino]-ethyl}-2-oxo-oxazolidin-3-yl)-4H-benzo[1,4]thiazin-3-one]

Compound	MIC
COc1ccc2nccc(C3(O)CCN(C[C@@H]4CN(c5ccc6c(c5)NC(=O)CO6)C(=O)O4)CC3)c2c1 [Example 132, 6-{(R)-5-[4-Hydroxy-4-(6-methoxy-quinolin-4-yl)-piperidin-1-ylmethyl]-2-oxo-oxazolidin-3-yl}-4H-benzo[1,4]oxazin-3-one]	0.063 mg/L (≈ 0.125 µM)
